{"source": "patent US20210187130A1", "about": "“PET RADIOPHARMACEUTICALS FOR NON-INVASIVE EVALUATION OF HIF-2alpha” (THE BOARD OF REGENTS OF THE UNIVERSITY OF TEXAS SYSTEM, priority 2019, published 2021)", "key": {"[1]": {"test_system": "ccRCC", "experiment": "Phase 1 clinical trial in patients with ccRCC", "assay_type": "in vivo", "description": "The drug was remarkably well tolerated and a maximal tolerated dose (MTD) was not reached. […] The drug was also highly specific, and high-grade adverse effects were on-target, and expected, such as anemia (HIF-2 is known to regulate erythropoietin, and the effect could be overcome by exogenous erythropoietin administration). While the patient cohort evaluated had been extensively pretreated (typically ≥4 prior lines), activity of the inhibitor was still observed. Among 51 patients treated in the study at various dose levels, there was 1 complete response (CR), 6 partial response (PR), and 13 patients who remained on the study without progression beyond a year (FIG. 5). Overall, 42% of patients remained without progression for at least 4 months. […] Those data illustrated that even in highly pretreated RCC patients the HIF-2 Inhibitor was able to remain active.\nThe Phase I trial was accompanied by a companion study involving imaging and tissue acquisition."}, "[2]": {"test_system": "ccRCC TGs", "experiment": "PT2399 in RCC tumorgraft (patient-derived xenograft) platform", "assay_type": "in vivo, mice", "experimental": "(§1) This compound was evaluated in over 250 mice implanted with RCCs from 22 patients. […] This was also observed clinically.\nTumor samples collected fresh from kidney cancer surgeries were implanted orthotopically (in the kidney) of immunocompromised mice (NOD/SCID) within 3 hours. The samples were implanted without disaggregation or any additives, and it was previously shown that these tumorgrafts retained the histology, gene expression, DNA copy number alterations, mutations, and treatment responsiveness of the patient tumors. This platform of human RCC tumorgraft models was used to validate HIF-2α as a target in ccRCC (FIGS. 1 and 2). […] This same platform was used to evaluate the uptake of [^11C]PT2385 by ccRCC tumorgrafts expressing HIF-2α by PET imaging."}, "[3]": {"experiment": "Tolerance (body weight) of tumorgraft-bearing mice", "assay_type": "in vivo", "conditions": "sunitinib at doses reproducing patient exposures", "experimental": "as §1"}, "[4]": {"conditions": "among 51 patients, various dose levels"}}, "note": "Entries after “also recorded” stand apart in the source; their conditions may differ."}
{"smiles": "CS(=O)(=O)c1ccc(Oc2cc(F)cc(C#N)c2)c2c1[C@H](O)C(F)(F)C2", "note": "[PT2385]", "values": [{"measurement": "complete response (CR), number of patients", "setting": "[1]; [4]", "result": 1}, {"measurement": "partial response (PR), number of patients", "setting": "[1]; [4]", "result": 6}, {"measurement": "patients remaining on study without progression beyond a year", "setting": "[1]; [4]", "result": 13}, {"measurement": "serious adverse effects requiring treatment discontinuation", "setting": "[1]; any patient", "result": "no serious adverse effects requiring treatment discontinuation"}, {"measurement": "maximal tolerated dose (MTD)", "setting": "[1]; dose escalation and dose expansion cohorts", "result": "not reached"}, {"measurement": "dose-limiting toxicities", "setting": "[1]; human, in vivo", "result": "no dose-limiting toxicities"}, {"measurement": "high-grade adverse effects (on-target)", "setting": "[1]; human, in vivo", "result": "anemia"}, {"measurement": "patients without progression for at least 4 months", "setting": "[1]; overall", "result": 42, "unit": "%"}, {"measurement": "activity in HIF-2α deficient tumors", "setting": "[1]; preliminary studies of patient tumor samples", "result": "no activity"}]}
{"smiles": "N#Cc1cc(F)cc(Oc2ccc(S(=O)(=O)C(F)F)c3c2CC(F)(F)[C@H]3O)c1", "note": "[PT2399]", "values": [{"measurement": "ccRCC tumorgrafts responsive (sensitive lines)", "setting": "[2]; RCCs from 22 patients, over 250 mice", "result": "approximately 50%"}, {"measurement": "number of intermediate tumorgraft lines", "setting": "[2]; of all 22 tumorgraft lines", "result": 5}, {"measurement": "number of resistant tumorgraft lines", "setting": "[2]; of all 22 tumorgraft lines", "result": 7}, {"measurement": "number of sensitive tumorgraft lines", "setting": "[2]; of all 22 tumorgraft lines", "result": 10}, {"measurement": "activity compared with sunitinib", "setting": "[2]; tumorgraft growth, sunitinib standard of care at the time", "result": "more active than Sunitinib; also recorded: more effective than sunitinib"}, {"measurement": "body weight change of treated mice", "setting": "[3]", "result": "did not"}]}
{"smiles": "CCN(CC)CCNC(=O)c1c(C)[nH]c(/C=C2\\C(=O)Nc3ccc(F)cc32)c1C", "note": "[sunitinib]", "values": [{"measurement": "body weight change of treated mice", "setting": "[3]", "result": "lost weight"}]}
